Assays:
barnyardgrass [1] = assay: Test D flooded paddy test; type: in vivo, Echinochloa crus-galli; conditions: 250 g ai/ha, applied to paddy water, visual rating after 13 to 14 days, scale 0 to 100 (0 no effect, 100 complete control)
Outline: (§1)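 Post-flood water application at the 2-leaf stage; 3 cm flood depth kept constant; visual control rating 0–100 after 13–14 days greenhouse growth.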

pigweed, palmer [2] = assay: Test C postemergence; type: in vivo, Amaranthus palmeri; conditions: 10 days, 0 to 100 scale (0 no effect, 100 complete control)
Outline: (§2)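 Visual injury score, 0–100 (100 = complete control), taken 10 days after treatment relative to untreated controls. Pre: directed spray onto soil over sown seeds. Post: foliar spray at one- to two-leaf stage, 2–10 cm. Solvent/surfactant formulation; loam–sand soil; greenhouse.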

ragweed [3] = assay: Test C preemergence; type: in vivo, Ambrosia artemisiifolia; conditions: for Ragweed plant response rating: 500 g ai/ha, preemergence, 0 to 100 scale (0 no effect, 100 complete control); for Plant response rating, Ragweed: Preemergence, 125 g ai/ha, 0 to 100 scale, 0 no effect, 100 complete control
Outline: as §2

wheat [4] = assay: Test C postemergence; type: in vivo, Triticum aestivum; conditions: 10 days, 0 to 100 scale (0 no effect, 100 complete control)
Outline: as §2

barnyardgrass [5] = assay: Test C preemergence; type: in vivo, Echinochloa crusgalli; conditions: for Barnyardgrass plant response rating: 500 g ai/ha, preemergence, 0 to 100 scale (0 no effect, 100 complete control); for Plant response rating, Barnyardgrass: Preemergence, 125 g ai/ha, 0 to 100 scale, 0 no effect, 100 complete control
Outline: as §2

foxtail, giant [6] = assay: Test C preemergence; type: in vivo, Setaria faberi; conditions: for Foxtail, Giant plant response rating: 500 g ai/ha, preemergence, 0 to 100 scale (0 no effect, 100 complete control); for Plant response rating, Foxtail, Giant: Preemergence, 125 g ai/ha, 0 to 100 scale, 0 no effect, 100 complete control
Outline: as §2

kochia [7] = assay: Test C preemergence; type: in vivo, Bassia scoparia; conditions: for Kochia plant response rating: 500 g ai/ha, preemergence, 0 to 100 scale (0 no effect, 100 complete control); for Plant response rating, Kochia: Preemergence, 125 g ai/ha, 0 to 100 scale, 0 no effect, 100 complete control
Outline: as §2

barnyardgrass [8] = assay: Test C postemergence; type: in vivo, Echinochloa crusgalli; conditions: 10 days, 0 to 100 scale (0 no effect, 100 complete control)
Outline: as §2

wheat [9] = assay: Test C preemergence; type: in vivo, Triticum aestivum; conditions: for Wheat plant response rating: 500 g ai/ha, preemergence, 0 to 100 scale (0 no effect, 100 complete control); for Plant response rating, Wheat: Preemergence, 125 g ai/ha, 0 to 100 scale, 0 no effect, 100 complete control
Outline: as §2

kochia [10] = assay: Test C postemergence; type: in vivo, Bassia scoparia; conditions: 10 days, 0 to 100 scale (0 no effect, 100 complete control)
Outline: as §2

ducksalad = assay: Test D flooded paddy test; type: in vivo, Heteranthera limosa; conditions: 250 g ai/ha, applied to paddy water, visual rating after 13 to 14 days, scale 0 to 100 (0 no effect, 100 complete control)
Outline: as §1

sedge, umbrella = assay: Test D flooded paddy test; type: in vivo, Cyperus difformis; conditions: 250 g ai/ha, applied to paddy water, visual rating after 13 to 14 days, scale 0 to 100 (0 no effect, 100 complete control)
Outline: as §1

galium = assay: Test C postemergence; type: in vivo, Galium aparine; conditions: 10 days, 0 to 100 scale (0 no effect, 100 complete control)
Outline: as §2

horseweed = assay: Test C postemergence; type: in vivo, Erigeron canadensis; conditions: 10 days, 0 to 100 scale (0 no effect, 100 complete control)
Outline: as §2

soybean [11] = assay: Test C postemergence; type: in vivo, Glycine max; conditions: 10 days, 0 to 100 scale (0 no effect, 100 complete control)
Outline: as §2

ryegrass, Italian [12] = assay: Test C postemergence; type: in vivo, Lolium multiflorum; conditions: 10 days, 0 to 100 scale (0 no effect, 100 complete control)
Outline: as §2

rice = assay: Test D flooded paddy test; type: in vivo, Oryza sativa; conditions: 250 g ai/ha, applied to paddy water, visual rating after 13 to 14 days, scale 0 to 100 (0 no effect, 100 complete control)
Outline: as §1

corn [13] = assay: Test C postemergence; type: in vivo, Zea mays; conditions: 10 days, 0 to 100 scale (0 no effect, 100 complete control)
Outline: as §2

soybean [14] = assay: Test C preemergence; type: in vivo, Glycine max; conditions: for Soybean plant response rating: 500 g ai/ha, preemergence, 0 to 100 scale (0 no effect, 100 complete control); for Plant response rating, Soybean: Preemergence, 125 g ai/ha, 0 to 100 scale, 0 no effect, 100 complete control
Outline: as §2

ragweed [15] = assay: Test C postemergence; type: in vivo, Ambrosia artemisiifolia; conditions: 10 days, 0 to 100 scale (0 no effect, 100 complete control)
Outline: as §2

blackgrass [16] = assay: Test C preemergence; type: in vivo, Alopecurus myosuroides; conditions: for Blackgrass plant response rating: 500 g ai/ha, preemergence, 0 to 100 scale (0 no effect, 100 complete control); for Plant response rating, Blackgrass: Preemergence, 125 g ai/ha, 0 to 100 scale, 0 no effect, 100 complete control
Outline: as §2

corn [17] = assay: Test C preemergence; type: in vivo, Zea mays; conditions: for Corn plant response rating: 500 g ai/ha, preemergence, 0 to 100 scale (0 no effect, 100 complete control); for Plant response rating, Corn: Preemergence, 125 g ai/ha, 0 to 100 scale, 0 no effect, 100 complete control
Outline: as §2

oat, wild [18] = assay: Test C postemergence; type: in vivo, Avena fatua; conditions: 10 days, 0 to 100 scale (0 no effect, 100 complete control)
Outline: as §2

foxtail, giant [19] = assay: Test C postemergence; type: in vivo, Setaria faberi; conditions: 10 days, 0 to 100 scale (0 no effect, 100 complete control)
Outline: as §2

pigweed, palmer [20] = assay: Test C preemergence; type: in vivo, Amaranthus palmeri; conditions: for Pigweed, Palmer plant response rating: 500 g ai/ha, preemergence, 0 to 100 scale (0 no effect, 100 complete control); for Plant response rating, Pigweed, Palmer: Preemergence, 125 g ai/ha, 0 to 100 scale, 0 no effect, 100 complete control
Outline: as §2

ryegrass, Italian [21] = assay: Test C preemergence; type: in vivo, Lolium multiflorum; conditions: for Ryegrass, Italian plant response rating: 500 g ai/ha, preemergence, 0 to 100 scale (0 no effect, 100 complete control); for Plant response rating, Ryegrass, Italian: Preemergence, 125 g ai/ha, 0 to 100 scale, 0 no effect, 100 complete control
Outline: as §2

blackgrass [22] = assay: Test C postemergence; type: in vivo, Alopecurus myosuroides; conditions: 10 days, 0 to 100 scale (0 no effect, 100 complete control)
Outline: as §2

oat, wild [23] = assay: Test C preemergence; type: in vivo, Avena fatua; conditions: for Oat, Wild plant response rating: 500 g ai/ha, preemergence, 0 to 100 scale (0 no effect, 100 complete control); for Plant response rating, Oat, Wild: Preemergence, 125 g ai/ha, 0 to 100 scale, 0 no effect, 100 complete control
Outline: as §2

Cc1ncn(-c2cc(C(=O)N3CC(C(F)(F)F)Oc4c(Cl)cccc43)ccn2)n1 (centres unmarked) [Compound 321]
10: Plant response rating, Pigweed, Palmer (pigweed, palmer [2]; Postemergence, 125 g ai/ha) | Plant response rating, Wheat (wheat [9]) | Plant response rating, Corn (corn [17]) | Plant response rating, Oat, Wild (oat, wild [18]; Postemergence, 125 g ai/ha)
60: Plant response rating, Pigweed, Palmer (pigweed, palmer [2]; 500 g ai/ha, postemergence) | Plant response rating, Kochia (kochia [10]; Postemergence, 125 g ai/ha) | Plant response rating, Ryegrass, Italian (ryegrass, Italian [12]; Postemergence, 125 g ai/ha) | Plant response rating, Blackgrass (blackgrass [22]; Postemergence, 125 g ai/ha)
0: Plant response rating, Barnyardgrass (Flood) (barnyardgrass [1]) | Plant response rating, Ragweed (ragweed [3]) | Plant response rating, Ducksalad (Flood) (ducksalad) | Plant response rating, Sedge, Umbrella (Flood) (sedge, umbrella) | Plant response rating, Horseweed (horseweed; 500 g ai/ha, postemergence) | Plant response rating, Horseweed (horseweed; Postemergence, 125 g ai/ha) | Plant response rating, Rice (Flood) (rice) | Plant response rating, Soybean (soybean [14]) | Plant response rating, Oat, Wild (oat, wild [23])
20: Plant response rating, Wheat (wheat [4]; Postemergence, 125 g ai/ha) | Plant response rating, Kochia (kochia [7]) | Plant response rating, Barnyardgrass (barnyardgrass [8]; Postemergence, 125 g ai/ha)
30: Wheat plant response rating (wheat [9]) | Plant response rating, Ragweed (ragweed [15]; Postemergence, 125 g ai/ha)
80: Ragweed plant response rating (ragweed [3]) | Plant response rating, Wheat (wheat [4]; 500 g ai/ha, postemergence) | Plant response rating, Kochia (kochia [10]; 500 g ai/ha, postemergence) | Plant response rating, Ryegrass, Italian (ryegrass, Italian [12]; 500 g ai/ha, postemergence) | Plant response rating, Blackgrass (blackgrass [16]) | Oat, Wild plant response rating (oat, wild [23])
40: Plant response rating, Barnyardgrass (barnyardgrass [5]) | Soybean plant response rating (soybean [14]) | Plant response rating, Ragweed (ragweed [15]; 500 g ai/ha, postemergence) | Corn plant response rating (corn [17])
90: Kochia plant response rating (kochia [7]) | Plant response rating, Barnyardgrass (barnyardgrass [8]; 500 g ai/ha, postemergence) | Plant response rating, Soybean (soybean [11]; Postemergence, 125 g ai/ha) | Plant response rating, Corn (corn [13]; 500 g ai/ha, postemergence) | Blackgrass plant response rating (blackgrass [16]) | Plant response rating, Oat, Wild (oat, wild [18]; 500 g ai/ha, postemergence) | Plant response rating, Foxtail, Giant (foxtail, giant [19]; 500 g ai/ha, postemergence) | Plant response rating, Ryegrass, Italian (ryegrass, Italian [21]) | Plant response rating, Blackgrass (blackgrass [22]; 500 g ai/ha, postemergence)
50: Plant response rating, Corn (corn [13]; Postemergence, 125 g ai/ha) | Plant response rating, Pigweed, Palmer (pigweed, palmer [20])
70: Plant response rating, Foxtail, Giant (foxtail, giant [19]; Postemergence, 125 g ai/ha)
100: Barnyardgrass plant response rating (barnyardgrass [5]) | Foxtail, Giant plant response rating (foxtail, giant [6]) | Plant response rating, Foxtail, Giant (foxtail, giant [6]) | Plant response rating, Galium (galium; 500 g ai/ha, postemergence) | Plant response rating, Galium (galium; Postemergence, 125 g ai/ha) | Plant response rating, Soybean (soybean [11]; 500 g ai/ha, postemergence) | Pigweed, Palmer plant response rating (pigweed, palmer [20]) | Ryegrass, Italian plant response rating (ryegrass, Italian [21])

Cc1cccc2c1OC(C(F)(F)F)CN2C(=O)c1ccnc(-n2cnc(C(C)C)n2)c1 (single isomer, unassigned) [Compound 320]
0: Plant response rating, Barnyardgrass (Flood) (barnyardgrass [1]) | Plant response rating, Pigweed, Palmer (pigweed, palmer [2]; Postemergence, 125 g ai/ha) | Ragweed plant response rating (ragweed [3]) | Plant response rating, Ragweed (ragweed [3]) | Plant response rating, Barnyardgrass (barnyardgrass [8]; Postemergence, 125 g ai/ha) | Plant response rating, Ducksalad (Flood) (ducksalad) | Plant response rating, Sedge, Umbrella (Flood) (sedge, umbrella) | Plant response rating, Rice (Flood) (rice) | Plant response rating, Ragweed (ragweed [15]; Postemergence, 125 g ai/ha) | Plant response rating, Blackgrass (blackgrass [16]) | Plant response rating, Blackgrass (blackgrass [22]; Postemergence, 125 g ai/ha)
80: Barnyardgrass plant response rating (barnyardgrass [5]) | Plant response rating, Kochia (kochia [10]; 500 g ai/ha, postemergence) | Plant response rating, Ryegrass, Italian (ryegrass, Italian [21])
90: Foxtail, Giant plant response rating (foxtail, giant [6]) | Wheat plant response rating (wheat [9]) | Ryegrass, Italian plant response rating (ryegrass, Italian [21])
60: Blackgrass plant response rating (blackgrass [16])
100: Plant response rating, Soybean (soybean [11]; 500 g ai/ha, postemergence) | Soybean plant response rating (soybean [14]) | Pigweed, Palmer plant response rating (pigweed, palmer [20])
70: Plant response rating, Galium (galium; 500 g ai/ha, postemergence)
50: Plant response rating, Pigweed, Palmer (pigweed, palmer [2]; 500 g ai/ha, postemergence) | Plant response rating, Galium (galium; Postemergence, 125 g ai/ha) | Plant response rating, Soybean (soybean [11]; Postemergence, 125 g ai/ha) | Plant response rating, Ragweed (ragweed [15]; 500 g ai/ha, postemergence)
40: Plant response rating, Kochia (kochia [10]; Postemergence, 125 g ai/ha) | Plant response rating, Horseweed (horseweed; 500 g ai/ha, postemergence) | Plant response rating, Corn (corn [13]; 500 g ai/ha, postemergence) | Plant response rating, Foxtail, Giant (foxtail, giant [19]; 500 g ai/ha, postemergence) | Oat, Wild plant response rating (oat, wild [23])
10: Plant response rating, Wheat (wheat [4]; Postemergence, 125 g ai/ha) | Kochia plant response rating (kochia [7]) | Plant response rating, Kochia (kochia [7]) | Plant response rating, Horseweed (horseweed; Postemergence, 125 g ai/ha) | Plant response rating, Corn (corn [13]; Postemergence, 125 g ai/ha) | Plant response rating, Soybean (soybean [14]) | Plant response rating, Oat, Wild (oat, wild [18]; 500 g ai/ha, postemergence) | Plant response rating, Oat, Wild (oat, wild [18]; Postemergence, 125 g ai/ha) | Plant response rating, Blackgrass (blackgrass [22]; 500 g ai/ha, postemergence) | Plant response rating, Oat, Wild (oat, wild [23])
20: Plant response rating, Foxtail, Giant (foxtail, giant [6]) | Plant response rating, Barnyardgrass (barnyardgrass [8]; 500 g ai/ha, postemergence) | Plant response rating, Wheat (wheat [9]) | Plant response rating, Ryegrass, Italian (ryegrass, Italian [12]; Postemergence, 125 g ai/ha) | Plant response rating, Foxtail, Giant (foxtail, giant [19]; Postemergence, 125 g ai/ha) | Plant response rating, Pigweed, Palmer (pigweed, palmer [20])
30: Plant response rating, Wheat (wheat [4]; 500 g ai/ha, postemergence) | Plant response rating, Barnyardgrass (barnyardgrass [5]) | Plant response rating, Ryegrass, Italian (ryegrass, Italian [12]; 500 g ai/ha, postemergence) | Corn plant response rating (corn [17]) | Plant response rating, Corn (corn [17])

— patent US20260262643A1, “HERBICIDAL BENZOXAZINES” (FMC CORPORATION, priority 2022, published 2026)
